pIC50: −log10 of the molar value. Read-outs that look alike come from different tables or passages of the source. Numbered stars: 1 amine (or outer) side, 2 acyl side, 3 side chain; on linkers, the order of the positions; unused ones are H or OH. Bridge positions count the residues as written; N and C are the ends. Square brackets hold non-standard residues; d marks the D form. Peptide text beside a SMILES is read from it. dBip = N[C@H](Cc1ccc(-c2ccccc2)cc1)C(=O)O; dPhe(4-NH2) = Nc1ccc(C[C@@H](N)C(=O)O)cc1; Phe(4-NH2) = Nc1ccc(C[C@H](N)C(=O)O)cc1; 2Thi = N[C@@H](Cc1cccs1)C(=O)O; Suc = O=C(CCC(=O)[*:2])[*:1]
How the values were obtained:
[1] = tested on: TNF-α (degradation of IkB in HeLa cells or A431 cells); assay: Human cell-based assay: inhibition of TNF-α induced degradation of IkB; conditions: for inhibition at 5 µM: read-out: Inhibition at Various Compound Concentrations, 5 μM; for inhibition at 10 µM: read-out: Inhibition at Various Compound Concentrations, 10 μM
[2] = tested on: rat paw edema model; assay: Rat paw edema model (carrageenan), anti-inflammatory activity; format: in vivo, Sprague-Dawley (SD) rats; conditions: 1 mg/kg IV
Protocol: Compounds 3, 4, 10 and 202 were tested in a rat paw edema model to determine anti-inflammatory activity. Seven groups (one for Vehicle A [15 mL PEG400, 3 mL Graves Grain alcohol (190 proof), 1.8 mL dimethylacetamide and 10.2 mL deionized water] alone as a negative control, one for Vehicle B [0.1M NaHCO3] alone as a negative control, one for each of the four test compounds dissolved in Vehicle A, and one for indomethacin dissolved in Vehicle B as a positive control), each group containing six Sprague-Dawley (SD) rats (180-200 g) randomized by weight. Initial paw volumes were measured by placing the right hind limb of the rat up to the top of the hock in a beaker of water sitting on a scale that had been tared to zero and recording the readout.
Rats were pre-treated with either i) one of the test compounds, or ii) a positive or negative control. Vehicle A alone and test compound dissolved in Vehicle A (Compound 3-1.0 mg/kg; Compound 4-0.4 mg/kg; Compound 10-0.5 mg/kg; Compound 202-0.3 mg/kg) were administered by intravenous injection. Vehicle B alone and indomethacin (5 mg/kg in 0.1M NaHCO3) was administered by intraperitoneal injection. Thirty minutes after this pretreatment, rats were anesthetized and injected with 0.1 mL of carrageenan (10 mg/mL in water) in the subplantar region of the right hind foot using a ½ inch 26 gauge needle attached to a 1 cc syringe.
At 2, 4 and 6 hours post-carrageenan injection, the right hind foot of each rat was measured for paw volume as described above.
We next investigated the effect of varying intravenous doses of Compound 202 (0.05, 0.10, 0.30, and 1.00 mg/kg) in the same model using the same protocol (6 rats per group). […] We also investigated the affect of oral dosing (10 mg/kg) of Compound 202 in the same model. For oral dosing, a 2.5 mg/mL suspension of Compound 202 was prepared in Vehicle A. Rats were orally administered 4 mL/kg of that suspension.

[3] = target: T1, TNFα / TNFα receptor (TNFα R1/Fc) (Homo sapiens, UniProt P01375); assay: Inhibition of binding of TNFα to the TNFα receptor (plate ELISA competition); conditions: Table 2; read-out: Activity (IC50, inhibition of TNFα binding to TNFα R1/Fc)
T1 construct: purchased R&D Systems
In short: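 Plates were coated with TNFα at 15 nM. Test compound and 8.33 nM receptor-Fc (PBST, 2% DMSO) were first mixed in solution for 30 min at room temperature, then transferred to the plates for another 30 min. Competition was read by absorbance at 450 nm after HRP anti-human IgG Fc detection with TMB.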

[4] = 5 μM compound, HeLa or A431 cells
[5] = 10 μM compound, HeLa or A431 cells

T1 sequence (P01375 77-233 limits assumed, species assumed): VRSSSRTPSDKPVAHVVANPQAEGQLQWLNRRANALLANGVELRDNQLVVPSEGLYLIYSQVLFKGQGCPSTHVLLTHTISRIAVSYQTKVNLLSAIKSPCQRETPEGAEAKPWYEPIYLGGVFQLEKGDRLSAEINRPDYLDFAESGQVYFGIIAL

Row | Structure (SMILES) | inhibition at 5 µM [1, 4] [%] | inhibition at 10 µM [1, 5] [%] | Change in Paw Volume ([2]; Table 6, 2 h post-carrageenan) [mL] | Change in Paw Volume ([2]; Table 6, 4 h post-carrageenan) [mL] | Change in Paw Volume ([2]; Table 6, 6 h post-carrageenan) [mL] | pIC50 [3] | also measured
1 | O=C(O)[C@@H]1Cc2ccc(cc2)NC(=O)[C@H](O)[C@@H](O)C(=O)N[C@H](Cc2cccs2)C(=O)N[C@@H](Cc2ccc(-c3ccncc3)cc2)C(=O)N[C@H](Cc2ccccc2)C(=O)N1 [Compound 330] | > 80 | 10 to 50 | 1.20 ± 0.20 | 1.32 ± 0.17 | 1.33 ± 0.22 | > 5.00 | –
2 | O=C(O)CCCNC(=O)[C@@H]1Cc2ccc(cc2)OCC(=O)N[C@@H](Cc2cccs2)C(=O)N[C@@H](Cc2ccc(-c3ccccc3)cc2)C(=O)N[C@@H](Cc2ccccc2)C(=O)N1 [Compound 342] | < 10 | 10 to 50 | – | – | – | > 5.00 | Change in Paw Volume ([2]; Table 4, 2 h post-carrageenan): 1.36 ± 0.10 mL; Change in Paw Volume ([2]; Table 4, 4 h post-carrageenan): 1.49 ± 0.20 mL; Change in Paw Volume ([2]; Table 4, 6 h post-carrageenan): 1.51 ± 0.15 mL
3 | CC(C)(C)Oc1ccc(C[C@@H]2NC(=O)[C@@H](Cc3ccc(-c4ccccc4)cc3)NC(=O)[C@H](Cc3cccs3)NC(=O)COc3ccc(cc3)C[C@@H](C(=O)O)NC2=O)cc1 [Compound 346] | – | – | 1.17 ± 0.06 | 1.20 ± 0.09 | 1.34 ± 0.09 | > 5.00 | inhibition at 5 µM [1]: > 80%; inhibition at 10 µM [1]: 50 to 80%
4 | O=C1COc2ccc(cc2)C[C@@H](C(=O)O)NC(=O)[C@H](CCc2ccccc2)NC(=O)[C@@H](Cc2ccc(-c3ccccc3)cc2)NC(=O)[C@H](Cc2cccs2)N1 [Compound 348] | 10 to 50 | 50 to 80 | 1.13 ± 0.10 | 1.30 ± 0.20 | 1.32 ± 0.11 | > 5.00 | –
5 | O=C1COc2ccc(cc2)C[C@@H](C(=O)O)NC(=O)[C@H](Cc2ccccc2)NC(=O)[C@H](Cc2ccc(-c3ccc(NC(=O)OCc4ccccc4)cc3)cc2)NC(=O)[C@H](Cc2cccs2)N1 [Compound 362] | – | – | – | – | – | > 5.00 | inhibition at 5 µM [1]: < 10%; inhibition at 10 µM [1]: 10 to 50%; Change in Paw Volume ([2]; Table 5, 2 h post-carrageenan): 1.17 ± 0.07 mL; Change in Paw Volume ([2]; Table 5, 4 h post-carrageenan): 1.22 ± 0.21 mL; Change in Paw Volume ([2]; Table 5, 6 h post-carrageenan): 1.15 ± 0.19 mL
6 | O=C1CCC(=O)N[C@@H](Cc2cccs2)C(=O)N[C@H](Cc2ccc(-c3ccccc3)cc2)C(=O)N[C@@H](Cc2ccccc2)C(=O)N[C@H](C(=O)O)Cc2ccc(cc2)N1 [Compound 493] ([2Thi][dBip]F[Phe(4-NH2)]-OH; linker N-4 via Suc) | – | – | – | – | – | > 5.00 | Change in Paw Volume ([2]; Table 8, 2 h post-carrageenan): 1.04 ± 0.15 mL; Change in Paw Volume ([2]; Table 8, 4 h post-carrageenan): 1.12 ± 0.10 mL; Change in Paw Volume ([2]; Table 8, 6 h post-carrageenan): 1.03 ± 0.15 mL
7 | O=C1CCC(=O)N[C@@H](Cc2cccs2)C(=O)N[C@H](Cc2ccc(-c3ccccc3)cc2)C(=O)N[C@@H](Cc2ccccc2)C(=O)N[C@@H](C(=O)O)Cc2ccc(cc2)N1 [Compound 500] ([2Thi][dBip]F[dPhe(4-NH2)]-OH; linker N-4 via Suc) | – | – | – | – | – | 4.52 to 5.00 | Change in Paw Volume ([2]; Table 8, 2 h post-carrageenan): 0.98 ± 0.24 mL; Change in Paw Volume ([2]; Table 8, 4 h post-carrageenan): 1.07 ± 0.21 mL; Change in Paw Volume ([2]; Table 8, 6 h post-carrageenan): 0.98 ± 0.14 mL
8 | O=C1COc2ccc(cc2)C[C@@H](C(=O)O)NC(=O)[C@H](CCc2ccccc2)NC(=O)[C@@H](Cc2ccc(-c3ccccc3)cc2)NC(=O)[C@H](Cc2ccncc2)N1 [Compound 506] | – | – | – | – | – | > 5.00 | Change in Paw Volume ([2]; Table 5, 2 h post-carrageenan): 0.74 ± 0.18 mL; Change in Paw Volume ([2]; Table 5, 4 h post-carrageenan): 1.05 ± 0.17 mL; Change in Paw Volume ([2]; Table 5, 6 h post-carrageenan): 0.86 ± 0.15 mL
